*1 amine or outer side, *2 acyl side, *3 side chain or, on linkers, in order; H or OH if unused. Where a SMILES comes first, the peptide text is derived from it. Bridges are numbered along the chain shown (N, C = ends). [ ]: non-standard residue; d: D form. Nle(4-yne,6-yl) = O=C([C@H](CC#CC[*:3])N[*:1])[*:2]
The compounds below were run against Bcl-2 protein having His tag on the C terminal side (Homo sapiens, UniProt P10415) (assay: Binding ability to Bcl-2 by SPR (Surface Plasmon Resonance), dissociation constant). Conditions: His-tagged Bcl-2 immobilized on Ni substrate, solid-phase synthesized peptide, KD from binding and dissociation rates.
Sequence of Bcl-2 protein having His tag on the C terminal side (P10415 whole entry): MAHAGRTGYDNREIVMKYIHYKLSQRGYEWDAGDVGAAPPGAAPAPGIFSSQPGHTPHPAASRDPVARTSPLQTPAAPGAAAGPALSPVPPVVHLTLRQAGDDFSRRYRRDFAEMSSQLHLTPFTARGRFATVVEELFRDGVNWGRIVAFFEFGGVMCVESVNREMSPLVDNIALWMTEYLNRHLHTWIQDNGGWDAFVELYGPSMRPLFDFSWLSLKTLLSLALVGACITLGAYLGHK
Protocol: Next, a crosslinked peptide having the amino acid sequence as shown in the above table was synthesized by using a Fmoc solid-phase method and its binding ability was evaluated by calculating a dissociation constant (KD) in accordance with an evaluation method using SPR (Surface Plasmon Resonance).
Described specifically, first, a solution containing NiCl2 was applied on a substrate to which Ni could be bound and then Bcl-2 protein having His tag on the C terminal side thereof was applied to immobilize the protein on the substrate. Then, a solution containing a solid-phase synthesized peptide was added successively while appropriately changing the concentration. During addition, a change in refractive index depending on the weight on the substrate was read and bond strength was evaluated based on the binding rate and dissociation rate of the peptide calculated.

Compared with `CC[C@H](C)[C@@H]1NC(=O)[C@H]([C@@H](C)O)NC(=O)[C@@H](NC(=O)[C@H](Cc2c[nH]cn2)NC(=O)[C@@H]2CCCN2C(=O)[C@H](Cc2ccccc2)NC(C)=O)CC#CCSC[C@@H](C(=O)N[C@@H](CCCNC(=N)N)C(=O)N[C@@H](C)C(=O)N[C@@H](CC(=O)O)C(=O)N[C@@H](CO)C(=O)N[C@@H](Cc2ccc(O)cc2)C(=O)N[C@@H](CC(=O)O)C(=O)N[C@@H](CO)C(=O)N[C@@H](Cc2ccc(O)cc2)C(=O)N[C@H](C(=O)N[C@@H](CCCNC(=N)N)C(=O)N[C@@H](CC(C)C)C(=O)N[C@@H](C)C(=O)N[C@@H](C)C(=O)N[C@H](C(=O)N[C@@H](Cc2ccccc2)C(=O)N[C@@H](CC(C)C)C(N)=O)[C@@H](C)O)C(C)C)NC(=O)[C@H](C)NC1=O` [A-1] (Ac-FPH[Nle(4-yne,6-yl)]TIACRADSYDSYVRLAATFL-NH2; thioether 4-8), `CC[C@H](C)[C@H](NC(=O)[C@H](Cc1c[nH]cn1)NC(=O)[C@H](CCCNC(=N)N)NC(=O)[C@H](CO)NC(=O)[C@H](C)NC(=O)[C@H](CC(=O)O)NC(=O)[C@H](Cc1ccc(O)cc1)NC(=O)[C@H](CO)NC(=O)[C@H](CC(=O)O)NC(=O)[C@H](C)NC(=O)[C@H](CC(C)C)NC(=O)[C@@H]1CSCC#CC[C@H](NC(=O)[C@@H](NC(=O)[C@@H](NC(=O)[C@H](Cc2ccccc2)NC(C)=O)[C@@H](C)CC)[C@@H](C)CC)C(=O)N[C@@H](CCCNC(=N)N)C(=O)N[C@@H](Cc2ccccc2)C(=O)N[C@@H](CO)C(=O)N1)C(=O)N[C@@H](Cc1ccccc1)C(N)=O` [A-5] (Ac-FII[Nle(4-yne,6-yl)]RFSCLADSYDASRHIF-NH2; thioether 4-8) is 2.2-fold lower in Kd: 0.37 nM for the first, 0.17 nM for the second.

`CC(=O)N[C@@H](Cc1ccccc1)C(=O)N[C@@H](Cc1ccccc1)C(=O)N[C@@H](CC(N)=O)C(=O)N[C@@H](CCCNC(=N)N)C(=O)N[C@@H](Cc1c[nH]cn1)C(=O)N[C@@H](CC(N)=O)C(=O)N[C@@H](CC(N)=O)C(=O)N[C@@H](C)C(=O)N[C@@H](Cc1ccc(O)cc1)C(=O)N[C@@H](Cc1ccc(O)cc1)C(=O)N[C@H](C(=O)N[C@H]1CC#CCSC[C@@H](C(=O)N[C@@H](CC(C)C)C(=O)NCC(=O)N[C@@H](CCCNC(=N)N)C(=O)N[C@@H](CC(C)C)C(=O)N[C@@H](Cc2ccc(O)cc2)C(=O)N[C@@H](CCCNC(=N)N)C(=O)N[C@@H](CC(C)C)C(=O)N[C@@H](CC(C)C)C(N)=O)NC(=O)[C@H](C)NC(=O)[C@H](Cc2ccc(O)cc2)NC(=O)CNC1=O)[C@@H](C)O` [A-4] (Ac-FFNRHNNAYYT[Nle(4-yne,6-yl)]GYACLGRLYRLL-NH2; thioether 12-16) and `CC(=O)N[C@@H](Cc1ccccc1)C(=O)N[C@@H](CC(C)C)C(=O)N[C@@H](CC(N)=O)C(=O)N[C@@H](CCCNC(=N)N)C(=O)N[C@@H](Cc1c[nH]cn1)C(=O)N[C@@H](CC(N)=O)C(=O)N[C@@H](CC(N)=O)C(=O)N[C@@H](C)C(=O)N[C@@H](Cc1ccc(O)cc1)C(=O)N[C@@H](Cc1ccc(O)cc1)C(=O)N[C@H](C(=O)N[C@H]1CC#CCSC[C@@H](C(=O)N[C@@H](CC(C)C)C(=O)NCC(=O)N[C@@H](CCCNC(=N)N)C(=O)N[C@@H](CC(C)C)C(=O)N[C@@H](Cc2ccc(O)cc2)C(=O)N[C@@H](CCCNC(=N)N)C(=O)N[C@@H](CC(C)C)C(=O)N[C@@H](CC(C)C)C(N)=O)NC(=O)[C@H](C)NC(=O)[C@H](Cc2ccc(O)cc2)NC(=O)CNC1=O)[C@@H](C)O` [A-3] (Ac-FLNRHNNAYYT[Nle(4-yne,6-yl)]GYACLGRLYRLL-NH2; thioether 12-16) cannot be ordered by Kd: > 0.1 nM for the first, > 0.1 nM for the second.

Reference: US10435439B2, “Peptide with safer secondary structure, peptide library, and production methods for same” (The University of Tokyo, priority 2010, dated 2019)
